One data set concerns 22RV1. Nature of the data set: Cytotoxic activity test (MTT) on 22RV1 prostate cancer cells. Format: cell-based, human. The method, then: (§1) All prostate cancer cells were cultured with a RPMI-1640 medium containing 10% calf serum, 100 units of penicillin per milliliter and 100 µg/mL of streptomycin in a constant temperature incubator containing 5% carbon dioxide at a saturated humidity of 37° C.
(§2) Cells in the logarithmic phase of growth were taken and cultured in 96-well plates for 24 hours (5×10^3 cells/well), then treated with different concentrations of the compounds to be tested, and incubated by MTT method for 4 hours. The supernatant was removed by centrifugation, the MTT crystals were dissolved by adding DMSO, and the absorbance value was measured by an enzyme-linked immunosorbent assay at a wavelength of 570 nm. The cytotoxic activity of the compounds to be tested on cancer cells was expressed as IC50.

For another data set, the system named is C4-2B/ENZR. The experiment in a line: Cytotoxic activity test (MTT) on C4-2B/ENZR prostate cancer cells. Format: cell-based, human. Conditions: C4-2B/ENZR cells. How it is done: as §1, §2
A further data set has as its system LNcap. The experiment in a line: Cytotoxic activity test (MTT) on LNcap prostate cancer cells. The following applies: read-out: Prostate cancer cells IC50 LNcap. It is filed as cell-based, human. How it is done: as §1, §2
For another data set, the system named is C4-2B. The experiment in a line: Cytotoxic activity test (MTT) on C4-2B prostate cancer cells. It is filed as cell-based, human. Conditions: C4-2B cells. How it is done:
as §1, §2

The subject of the next data set is Vcap-CRPC. The experiment in a line: Cytotoxic activity test (MTT) on Vcap-CRPC prostate cancer cells. Format: cell-based, human. The following applies: read-out: Prostate cancer cells IC50 Vcap-CRPC. How it is done:
as §1, §2

A further data set relates to RWPE-1. Nature of the data set: Cytotoxic activity test (MTT) on normal human prostate cell RWPE-1. Format: cell-based. The method, then: as §1, §2
Another data set concerns prostate cancer cells. The experiment in a line: Inhibitory activity on a variety of prostate cancer cells (Table 1). The following applies: structure-activity statements on Table 1. It is filed as cell-based, human. The method, then: as §1, §2
The subject of data set [1] is 22Rv1 human prostate cancer cells. The experiment in a line: Mice model for 22RV1 prostate cancer growth, oral administration experiment. Format: in vivo, nod-scid male mice. The following applies: 22RV1 tumor-bearing mice. The source says:
(§3) First, a large number of 22RV1 cells were amplified. To ensure the success rate of tumor-bearing, the cell state needs to be adjusted to the optimal state. When the number of the cells was sufficient, the cells were digested and flushed twice with PBS buffer to remove fetal bovine serum (FBS) from the medium to reduce immune rejection. The cells were adjusted to 3000*10^4/mL after counting by a hemocytometer. Then 22Rv1 human prostate cancer cells […] were subcutaneously injected into a 4-5 weeks old nod-scid male mice with severe immunodeficiency.
When the tumor grew to a volume of about 100 mm^3, the mice were randomly divided into 3 groups to make sure that the average tumor volume was the same. The mice in the dosing group were orally gavaged with 0.5 mg/kg and 2 mg/kg of Compound YH-52 per day, and the mice in the control group were given the same volume of normal saline containing DMSO. The body weight of the mice and the length and width of the tumors were measured and recorded every 3 days. The subcutaneous tumors were taken and then photographed at the end of the experiment. The tumor volumes were calculated according to the equation: volume=length×width^2×π/6, and then counted. The experimental results are shown in FIG. 2A, FIG. 2B and FIG. 2C.

Data set [2] has the same test system. The experiment in a line: Mice model for 22RV1 prostate cancer growth, intraperitoneal injection in combination with enzalutamide. Format: in vivo, nod-scid male mice.
Text: as §3
When the tumor grew to about 100 mm^3, the mice were randomly divided into 4 groups to make sure that the average tumor volume was the same. […] The body weight of the mice and the length and width of the tumor were measured and recorded every 3 days. The subcutaneous tumors were taken and then photographed at the end of the experiment. The tumor volumes were calculated according to the equation: volume=length×width^2×π/6, and then counted. The experimental results are shown in FIG. 3A, FIG. 3B, FIG. 3C and FIG. 3D.

The mark [3] stands for this setting: 22RV1 cells, MTT, read-out: Prostate cancer cells IC50 22RV1.
The mark [4] stands for this setting: normal human prostate cell RWPE-1, MTT, read-out: Normal cells RWPE-1 (IC50).

Entries after “also recorded” stand apart in the source; their conditions may differ. Where two headings read alike, the source gives them in different places.

Here are results for nine compounds from patent publication US12686686B2 (priority 2020, dated 2026).

Usually IC50 stands for the concentration that inhibits the measured activity by half. As for `C=C(C)[C@@]12OC3(c4ccccc4)O[C@@H]1[C@@H]1[C@@H]4O[C@]4(COC(=O)CCCCCCCCCCCCCCC)[C@@H](O)[C@]4(O)C(=O)C(C)=C[C@H]4[C@@]1(O3)[C@H](C)[C@H]2OC(C)=O` [YH-5], the IC50 in the data set on 22RV1 (setting [3]) is 44.5 µM; with C4-2B/ENZR it was 0.434 µM; in the data set on LNcap (LNcap cells, MTT), 0.0993 µM; in the data set with C4-2B, 0.904 µM; in the data set on Vcap-CRPC (Vcap-CRPC cells, MTT), 4.66 µM; in the data set with RWPE-1 (setting [4]), 72.8 µM. Moreover, the “inhibitory activity on prostate cancer cells (in words)” value (“inhibitory activity” for short) in the data set with prostate cancer cells is given as “significant decrease in activity”.
For the compound `C=C(C)[C@@]12OC3(c4ccccc4)O[C@@H]1[C@@H]1[C@@H]4O[C@]4(COC(=O)c4ccccc4)[C@@H](O)[C@]4(O)C(=O)C(C)=C[C@H]4[C@@]1(O3)[C@H](C)[C@H]2OC(C)=O` [YH-9], the IC50 with C4-2B/ENZR (Homo sapiens) turned out to be 1.46 µM; in the data set with C4-2B (Homo sapiens) it was 0.38 µM. For the same compound, the “inhibitory activity” value in the data set on prostate cancer cells is “significant decrease in activity”.
The matching figures for `C=C(C)[C@@]12OC3(c4ccccc4)O[C@@H]1[C@@H]1[C@@H]4O[C@]4(COC(C)=O)[C@@H](OC(C)=O)[C@]4(O)C(=O)C(C)=C[C@H]4[C@@]1(O3)[C@H](C)[C@H]2OC(=O)c1ccccc1` [YH-12]: 1.9 µM, 0.557 µM and “significant decrease in activity”.
With `C=C(C)[C@@]12OC3(/C=C/C=C/CCCCC)O[C@@H]1[C@@H]1[C@@H]4O[C@]4(CO)[C@@H](O)[C@]4(O)C(=O)C(C)=C[C@H]4[C@@]1(O3)[C@H](C)[C@H]2OC(=O)c1ccccc1` [YH-16], the half-maximal inhibitory concentration (IC50) in the data set with 22RV1 (Homo sapiens, 22Rv1, read-out: Prostate cancer cells IC50 22RV1) was 0.0332 µM; in the data set with LNcap (Homo sapiens, LNCaP), 0.00543 µM; in the data set on Vcap-CRPC (Homo sapiens), 0.0057 µM; in the data set with RWPE-1 (setting [4]), 9.67 µM. For the same compound, the “inhibitory activity” value in the data set on prostate cancer cells is “more cytotoxic”.
Consider `C=C(C)[C@@]12OC3(/C=C/C=C/CCCCC)O[C@@H]1[C@@H]1[C@@H]4O[C@]4(COC(C)=O)[C@@H](O)[C@]4(O)C(=O)C(C)=C[C@H]4[C@@]1(O3)[C@H](C)[C@H]2OC(=O)c1ccccc1` [YH-19], for which the values for the 50% inhibitory concentration (IC50) in the data set with C4-2B/ENZR and in the data set with C4-2B were 0.136 µM and 0.0644 µM, respectively. For the same compound, the “inhibitory activity” value with prostate cancer cells is given as “significant decrease in activity”.
The matching figures for `C=C(C)[C@@]12OC3(/C=C/C=C/CCCCC)O[C@@H]1[C@@H]1[C@@H]4O[C@]4(COC(=O)c4ccccc4)[C@@H](O)[C@]4(O)C(=O)C(C)=C[C@H]4[C@@]1(O3)[C@H](C)[C@H]2OC(=O)c1ccccc1` [YH-20]: 5.76 µM, 1.58 µM and “significant decrease in activity”.
Take `C=C(C)[C@@]12OC3(/C=C/C=C/CCCCC)O[C@@H]1[C@@H]1[C@@H]4O[C@]4(COC(=O)c4ccccc4)[C@@H](O)[C@]4(O)C(=O)C(C)=C[C@H]4[C@@]1(O3)[C@H](C)[C@H]2OC(C)=O` [YH-25]: the IC50 with C4-2B/ENZR (Homo sapiens) came to 2.3 µM; in the data set with C4-2B (Homo sapiens), 0.593 µM. Also, in the data set on prostate cancer cells, the “inhibitory activity” value is given as “significant decrease in activity”.
For `C=C(C)C12OC3(c4ccccc4)OC1C1C(O)C(O)(CO)C(O)C4(O)C(=O)C(C)=CC4C1(O3)C(C)C2OC(=O)c1ccccc1` (centres unmarked) [YH-51], the IC50 in the data set on 22RV1 (setting [3]) is 1.77 µM; in the data set on C4-2B/ENZR, 0.0774 µM; in the data set with LNcap (LNcap cells, MTT), 0.00251 µM; with C4-2B, 0.00781 µM; with Vcap-CRPC (Vcap-CRPC cells, MTT), 0.00202 µM; with RWPE-1 (setting [4]), 12.3 µM. Also, in the data set with prostate cancer cells, the “inhibitory activity” value is given as “significantly reduced activity”.
As to `C=C(C)[C@@]12OC3(c4ccccc4)O[C@@H]1[C@@H]1[C@H](O)[C@](Br)(CO)[C@@H](O)[C@]4(O)C(=O)C(C)=C[C@H]4[C@@]1(O3)[C@H](C)[C@H]2OC(=O)c1ccccc1` [YH-52], the IC50 in the data set with RWPE-1 (Homo sapiens, RWPE-1, read-out: Normal cells RWPE-1 (IC50)) was 53.6 µM. The “toxicity for the normal human prostate cell RWPE-1” value in the data set with RWPE-1 (compared with prototype compound YH-11) is recorded as “significantly reduced toxicity”. Moreover, the “tumor growth in mice” value in data set [1] (oral gavage 0.5 mg/kg per day) and in data set [1] (oral gavage 2 mg/kg per day) was “significantly inhibit tumor growth” in each case. Also, in [2] (intraperitoneal injection 0.1 mg/kg in combination with ENZ (10 mg/kg)), the “effect in combination with ENZ” value is reported as “significant synergistic effect”. In data set [2] (intraperitoneal injection 0.1 mg/kg per day, ENZ 10 mg/kg), the “efficacy compared to the positive drug enzalutamide (ENZ)” value is listed as “greater efficacy”. Besides, the “inhibitory activity” value in the data set with prostate cancer cells is given as “most prominent; also recorded: enhanced activity”.
